≈ marks a conversion by molar mass, not a printed value.
Key:
[1] = Half life in human hepatocytes; type: ADME, cell-based, Hepatocyte
[2] = Half life in rat hepatocytes; type: ADME, cell-based, Hepatocyte
[3] = Half life in monkey S9 fraction; type: ADME, Macaca mulatta; details: rhesus monkey
[4] = Half life in human S9 fraction; type: ADME
[5] = Half life in rat S9 fraction; type: ADME
[6] = Half life in dog S9 fraction; type: ADME, Canis lupus familiaris
[7] = Solubility of the compound in simulated gastrointestinal fluid; type: physicochemical
[8] = Lipophilicity, log D of the compound at pH 7.4 by chromatographic analysis; type: physicochemical; details: buffer
[9] = Ratio of plasma concentration in rat to IC90 for pseudo Human immunodeficiency virus; type: ADME, cell-free
[10] = Apparent permeability in MDCK cells; type: ADME, cell-based, Canis lupus familiaris; details: dog
[11] = Plasma concentration in rat at 5 mg/kg, po after 24 hrs; type: ADME, organism-based; set-up: dose 5 mg/kg, route oral
[12] = Oral bioavailability in cynomolgus monkey at 5 mg/kg administered as capsule by LC-MS/MS analysis; type: ADME, organism-based, Macaca fascicularis; details: in vivo
[13] = Oral bioavailability in Beagle dog at 5 mg/kg administered as capsule by LC-MS/MS analysis; type: ADME, organism-based, Canis lupus familiaris; details: in vivo
[14] = Volume of distribution at steady state in cynomolgus monkey at 1 mg/kg, iv and 5 mg/kg, po administered as capsule by LC-MS/MS analysis; type: ADME, organism-based, Macaca fascicularis; details: in vivo, read-out: Vdss
[15] = Volume of distribution at steady state in Beagle dog at 1 mg/kg, iv and 5 mg/kg, po administered as capsule by LC-MS/MS analysis; type: ADME, organism-based, Canis lupus familiaris; details: in vivo, read-out: Vdss
[16] = Half life in cynomolgus monkey at 1 mg/kg, iv and 5 mg/kg, po administered as capsule by LC-MS/MS analysis; type: ADME, organism-based, Macaca fascicularis; details: in vivo
[17] = Half life in Beagle dog at 1 mg/kg, iv and 5 mg/kg, po administered as capsule by LC-MS/MS analysis; type: ADME, organism-based, Canis lupus familiaris; details: in vivo
[18] = Half life in Sprague-Dawley rat at 1 mg/kg, iv and 5 mg/kg, po administered as capsule by LC-MS/MS analysis; type: ADME, organism-based; details: in vivo
[19] = Clearance in Beagle dog at 1 mg/kg, iv and 5 mg/kg, po administered as capsule by LC-MS/MS analysis; type: ADME, organism-based, Canis lupus familiaris; details: in vivo
[20] = Clearance in cynomolgus monkey at 1 mg/kg, iv and 5 mg/kg, po administered as capsule by LC-MS/MS analysis; type: ADME, organism-based, Macaca fascicularis; details: in vivo
[21] = Fraction unbound in cynomolgus monkey plasma at 1 mg/kg, iv and 5 mg/kg, po administered as capsule by equilibrium dialysis technique; type: ADME, organism-based, Macaca fascicularis
[22] = Fraction unbound in Beagle dog plasma at 1 mg/kg, iv and 5 mg/kg, po administered as capsule by equilibrium dialysis technique; type: ADME, organism-based, Canis lupus familiaris
[23] = Fraction unbound in Sprague-Dawley rat plasma at 1 mg/kg, iv and 5 mg/kg, po administered as capsule by equilibrium dialysis technique; type: ADME, organism-based
[24] = Fraction unbound in human plasma; type: ADME, cell-free
[25] = system: Human immunodeficiency virus 1; experiment: Antiviral activity against Human immunodeficiency virus 1 3B infected in human MT4 cells after 4 to 5 days by bioluminescence assay in presence of human serum relative to control; type: functional
[26] = system: Human immunodeficiency virus 1; experiment: Antiviral activity against Human immunodeficiency virus 1 3B infected in human MT4 cells after 4 to 5 days by bioluminescence assay; type: functional, organism-based
[27] = system: Human immunodeficiency virus 1; experiment: Antiviral activity against Human immunodeficiency virus 1 Ba-L infected human PBMC after 7 days by [methyl-3H]dTTP incorporation assay; type: functional, organism-based; details: 168 h
[28] = molecular target: Human immunodeficiency virus type 1 integrase (Human immunodeficiency virus 1, UniProt Q7ZJM1); experiment: Inhibition of HIV-1 integrase strand transfer activity using [3H]-DNA as substrate preincubated for 60 mins prior to substrate addition measured after 25 to 45 mins
Sequence of Human immunodeficiency virus type 1 integrase (Q7ZJM1 whole entry): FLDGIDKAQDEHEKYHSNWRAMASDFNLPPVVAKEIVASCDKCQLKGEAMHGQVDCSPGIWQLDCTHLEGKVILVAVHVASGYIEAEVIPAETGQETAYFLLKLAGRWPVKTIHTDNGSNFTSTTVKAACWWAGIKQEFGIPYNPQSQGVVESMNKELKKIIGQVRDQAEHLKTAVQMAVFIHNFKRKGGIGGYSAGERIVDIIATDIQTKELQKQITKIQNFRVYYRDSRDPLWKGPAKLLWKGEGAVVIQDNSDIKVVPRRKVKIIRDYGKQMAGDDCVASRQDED

[29] = system: Human immunodeficiency virus; experiment: Ratio of IC50 for pseudo Human immunodeficiency virus to IC50 for pseudo Human immunodeficiency virus in presence of human serum albumin; type: functional
[30] = system: Human immunodeficiency virus; experiment: Antiviral activity against Human immunodeficiency virus harboring integrase Q148K mutant infected in human HeLa cells expressing CD4 after 2 days by beta galactosidase assay relative to wild type HIV; type: functional
[31] = system: Human immunodeficiency virus; experiment: Antiviral activity against pseudo Human immunodeficiency virus infected in HEK293T cells after 2 days in presence of human serum albumin; type: functional, organism-based; details: Human immunodeficiency virus 1, HEK-293T, 48 h
[32] = system: Human immunodeficiency virus; experiment: Antiviral activity against pseudo Human immunodeficiency virus infected in HEK293T cells after 2 days; type: functional, organism-based; details: Human immunodeficiency virus 1, HEK-293T, 48 h
[33] = Oral bioavailability in cynomolgus monkey at 5 mg/kg administered as suspension by LC-MS/MS analysis; type: ADME, organism-based, Macaca fascicularis; details: in vivo
[34] = Oral bioavailability in Beagle dog at 5 mg/kg administered as suspension by LC-MS/MS analysis; type: ADME, organism-based, Canis lupus familiaris; details: in vivo
[35] = Oral bioavailability in Sprague-Dawley rat at 5 mg/kg administered as suspension by LC-MS/MS analysis; type: ADME, organism-based; details: in vivo
[36] = Volume of distribution at steady state in cynomolgus monkey at 1 mg/kg, iv and 5 mg/kg, po administered as suspension by LC-MS/MS analysis; type: ADME, organism-based, Macaca fascicularis; details: in vivo, read-out: Vdss
[37] = Volume of distribution at steady state in Beagle dog at 1 mg/kg, iv and 5 mg/kg, po administered as suspension by LC-MS/MS analysis; type: ADME, organism-based, Canis lupus familiaris; details: in vivo, read-out: Vdss
[38] = Volume of distribution at steady state in Sprague-Dawley rat at 1 mg/kg, iv and 5 mg/kg, po administered as suspension by LC-MS/MS analysis; type: ADME, organism-based; details: in vivo, read-out: Vdss
[39] = Half life in Beagle dog at 1 mg/kg, iv and 5 mg/kg, po administered as suspension by LC-MS/MS analysis; type: ADME, organism-based, Canis lupus familiaris; details: in vivo
[40] = Half life in cynomolgus monkey at 1 mg/kg, iv and 5 mg/kg, po administered as suspension by LC-MS/MS analysis; type: ADME, organism-based, Macaca fascicularis; details: in vivo
[41] = Half life in Sprague-Dawley rat at 1 mg/kg, iv and 5 mg/kg, po administered as suspension by LC-MS/MS analysis; type: ADME, organism-based; details: in vivo
[42] = Clearance in Beagle dog at 1 mg/kg, iv and 5 mg/kg, po administered as suspension by LC-MS/MS analysis; type: ADME, organism-based, Canis lupus familiaris; details: in vivo
[43] = Clearance in cynomolgus monkey at 1 mg/kg, iv and 5 mg/kg, po administered as suspension by LC-MS/MS analysis; type: ADME, organism-based, Macaca fascicularis; details: in vivo
[44] = Clearance in Sprague-Dawley rat at 1 mg/kg, iv and 5 mg/kg, po administered as suspension by LC-MS/MS analysis; type: ADME, organism-based; details: in vivo
[45] = Fraction unbound in cynomolgus monkey plasma at 1 mg/kg, iv and 5 mg/kg, po administered as suspension by equilibrium dialysis technique; type: ADME, organism-based, Macaca fascicularis
[46] = Fraction unbound in Beagle dog plasma at 1 mg/kg, iv and 5 mg/kg, po administered as suspension by equilibrium dialysis technique; type: ADME, organism-based, Canis lupus familiaris
[47] = Fraction unbound in Sprague-Dawley rat plasma at 1 mg/kg, iv and 5 mg/kg, po administered as suspension by equilibrium dialysis technique; type: ADME, organism-based

**Q.** For `C[C@H]1CO[C@@H]2Cn3cc(C(=O)NCc4ccc(F)cc4F)c(=O)c(O)c3C(=O)N12` [CABOTEGRAVIR], which half-life [1] is on record?
**A.** > 220 min

**Q.** What about the half-life [2] of the same compound?
**A.** > 220 min

**Q.** What about the half-life [3] of the same compound?
**A.** > 180 min

**Q.** And the half-life [4]?
**A.** > 180 min

**Q.** What about the half-life [5] of the same compound?
**A.** > 180 min

**Q.** And the half-life [6]?
**A.** > 180 min

**Q.** What about the solubility [7] of the same compound?
**A.** 42 µg/mL (≈ 104 µM)

**Q.** What about the chromatographic logD [8] of the same compound?
**A.** 3.49

**Q.** What about the Ratio [9] of the same compound?
**A.** 0.9

**Q.** And the Papp [10]?
**A.** 42.5 ×10⁻⁶ cm/s

**Q.** What about the concentration at 24 h [11] of the same compound?
**A.** 9590 ng/mL

**Q.** And the bioavailability [12]?
**A.** 6.2%

**Q.** What about the bioavailability [13] of the same compound?
**A.** 8%

**Q.** What about the Vd [14] of the same compound?
**A.** 0.09 L/kg

**Q.** And the Vd [15]?
**A.** 0.14 L/kg

**Q.** And the half-life [16]?
**A.** 240 min

**Q.** What about the half-life [17] of the same compound?
**A.** 342 min

**Q.** And the half-life [18]?
**A.** > 1080 min

**Q.** And the clearance [19]?
**A.** 0.34 mL/min/kg

**Q.** What about the clearance [20] of the same compound?
**A.** 0.32 mL/min/kg

**Q.** What about the fraction unbound [21] of the same compound?
**A.** 0.003

**Q.** What about the fraction unbound [22] of the same compound?
**A.** 0.007

**Q.** What about the fraction unbound [23] of the same compound?
**A.** < 0.001

**Q.** What about the fraction unbound [24] of the same compound?
**A.** 0.004

**Q.** What about the “fold change (FC)” value [25] of the same compound?
**A.** 408

**Q.** And the IC50 [26]?
**A.** 1.3 nM

**Q.** What about the IC50 [27] of the same compound?
**A.** 0.2 nM

**Q.** And the IC50 [28]?
**A.** 3 nM

**Q.** What about the “Ratio IC50” value [29] of the same compound?
**A.** 60

**Q.** And the “fold change (FC)” value [30]?
**A.** 3.9

**Q.** What about the IC50 [31] of the same compound?
**A.** 30 nM

**Q.** What about the IC90 [31] of the same compound?
**A.** 0.0491 µg/mL

**Q.** And the IC50 [32]?
**A.** 0.5 nM

**Q.** With `C[C@@H]1CCO[C@H]2Cn3cc(C(=O)NCc4ccc(F)cc4F)c(=O)c([O-])c3C(=O)N12.[Na+]` [DOLUTEGRAVIR SODIUM] as the compound, how does the half-life [1] read?
**A.** > 220 min

**Q.** And the half-life [2]?
**A.** > 220 min

**Q.** And the half-life [3]?
**A.** > 180 min

**Q.** And the half-life [4]?
**A.** > 180 min

**Q.** And the half-life [5]?
**A.** > 180 min

**Q.** What about the half-life [6] of the same compound?
**A.** > 180 min

**Q.** What about the solubility [7] of the same compound?
**A.** 130 µg/mL

**Q.** And the chromatographic logD [8]?
**A.** 3.67

**Q.** What about the Papp [10] of the same compound?
**A.** 58.5 ×10⁻⁶ cm/s

**Q.** And the concentration at 24 h [11]?
**A.** 908 ng/mL

**Q.** What about the bioavailability [33] of the same compound?
**A.** 25%

**Q.** What about the bioavailability [34] of the same compound?
**A.** 35%

**Q.** And the bioavailability [35]?
**A.** 34%

**Q.** What about the Vd [36] of the same compound?
**A.** 0.3 L/kg

**Q.** What about the Vd [37] of the same compound?
**A.** 0.3 L/kg

**Q.** What about the Vd [38] of the same compound?
**A.** 0.1 L/kg

**Q.** What about the half-life [39] of the same compound?
**A.** 312 min

**Q.** And the half-life [40]?
**A.** 360 min

**Q.** And the half-life [41]?
**A.** 372 min

**Q.** What about the clearance [42] of the same compound?
**A.** 2.2 mL/min/kg

**Q.** What about the clearance [43] of the same compound?
**A.** 2.1 mL/min/kg

**Q.** And the clearance [44]?
**A.** 0.23 mL/min/kg

**Q.** What about the fraction unbound [24] of the same compound?
**A.** 0.007

**Q.** And the fraction unbound [45]?
**A.** 0.009

**Q.** And the fraction unbound [46]?
**A.** 0.046

**Q.** And the fraction unbound [47]?
**A.** 0.001

From ChEMBL document CHEMBL2401737 (J Med Chem, 2013)
